Data set [1] has as its target Alpha1A adrenergic receptor (Homo sapiens (Human), UniProt P35348). The data set can be described thus: Secondary radioligand binding assay, Alpha1A. Conditions: average of at least two experiments. On the set-up: key to Ki Alpha1A: “—” indicates that a binding interaction was not detected. The source says: 1. Secondary Radioligand Binding Assays The detailed experimental protocols for the radioligand and functional receptor assays are available on the NIMH PDSP website at http://pdsp.med.unc.edu/UNC-CH %20Protocol %20Book.pdf. Raw data (dpm) representing total radioligand binding (i.e. specific+non-specific binding) are plotted as a function of the logarithm of the molar concentration of the competitor (i.e. test or reference compound). […] C. Adrenergic Receptors: α1A, α1B, α2A, α2B, α2C, β1, β2, β3 Assay Buffers: For α1 receptors, α1 Binding Buffer (20 mM Tris-HCl, 145 mM NaCl, pH 7.4); for α2 receptors, α2 Binding Buffer (50 mM Tris-HCl, 5 mM MgCl2, pH 7.7); for β receptors, β Binding Buffer (50 mM Tris-HCl, 3 mM MnCl2, pH 7.7) Membrane Fraction Source: Transiently or stably transfected cell lines (e.g. HEK293, COS, CHO, NIH3T3) Protocol adapted from Arango et al. […] (1990), Gen. Psychiatry, 47: 1038-1047. The method is carried out in the manner described for the serotonin receptor assay above, except where described below. Eleven dilutions (5× assay concentration) of the test and reference (see Table 20) compounds are prepared in the appropriate buffer by serial dilution, as previously described. Radioligand is diluted to five times the assay concentration (see Table 21) in the appropriate buffer. […] Four rapid 500-μl washes are performed with chilled distilled water (for α1 and β receptors) or 0.1% polyethyleneimine (for α2 receptors) to reduce non-specific binding. Filters are placed in 6 ml scintillation tubes and allowed to dry overnight and the samples are treated to obtain data as described above. [table]

Data set [2] concerns the target 5HT2c receptor (Homo sapiens (Human), UniProt P28335). The data set can be described thus: Secondary radioligand binding assay, 5HT2c. Conditions: average of at least two experiments.
Protocol: (§8) Assay Buffer: Standard Binding Buffer (50 mM Tris-HCl, 10 mM MgCl2, 1 mM EDTA, pH 7.4)
(§9) Membrane Fraction Source: Transiently or stably transfected cell lines (e.g., HEK293, COS, CHO, NIH3T3)
Data set [3] has as its target 5HT2b receptor (Homo sapiens (Human), UniProt P41595). The data set can be described thus: Secondary radioligand binding assay, 5HT2b.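 Further: competition binding against a radioligand on membranes from transfected cell lines, 1.5 h incubation at room temperature, filter-retained radioactivity counted by liquid scintillation.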 On the set-up: key to Ki 5HT2b: “—” indicates that a binding interaction was not detected. Conditions: average of at least two experiments.
Protocol: as §8, §9
Data set [4] concerns the target dopamine D3 receptor (Homo sapiens (Human), UniProt P35462). Put plainly: Secondary radioligand binding assay, D3. On the set-up: key to Ki D3: “—” indicates that a binding interaction was not detected. The conditions noted are these: average of at least two experiments. The protocol:
(§1) 1. Secondary Radioligand Binding Assays
(§2) The detailed experimental protocols for the radioligand and functional receptor assays are available on the NIMH PDSP website at http://pdsp.med.unc.edu/UNC-CH %20Protocol %20Book.pdf.
(§3) Radioligand is diluted to five times the assay concentration (see Table 18) in Standard Binding Buffer. Typically, the assay concentration of radioligand is a value between one half the KD and the KD of a particular radioligand at its target. 50 μl aliquots of radioligand are dispensed into the wells of a 96-well plate containing 100 μl of Standard Binding Buffer. Then, duplicate 50 μl aliquots of the test and reference compound dilutions are added.
(§4) The 250 μl reactions are incubated at room temperature and shielded from light (to prevent photolysis of light-sensitive ligands) for 1.5 hours, then harvested by rapid filtration onto Whatman GF/B glass fiber filters pre-soaked with 0.3% polyethyleneimine using a 96-well Brandel harverster. Four rapid 500 μl washes are performed with chilled Standard Binding Buffer to reduce non-specific binding. Filters are placed in 6 ml scintillation tubes and allowed to dry overnight. The next day, 4 ml of EcoScint scintillation cocktail (National Diagnostics) are added to each tube. The tubes are capped, labeled, and counted by liquid scintillation counting. […] The filter mats are dried, then scintillant is melted onto the filters and the radioactivity retained on the filters is counted in a Microbeta scintillation counter.
(§5) Raw data (dpm) representing total radioligand binding (i.e. specific+non-specific binding) are plotted as a function of the logarithm of the molar concentration of the competitor (i.e. test or reference compound).
(§6) B. Dopamine Receptors: D1, D2, D3, D4, D5 Assay Buffers: Dopamine Binding Buffer (50 mM NaCl, 50 mM HEPES-HCl, 5 mM MgCl2, 0.5 mM EDTA, pH 7.4) Membrane Fraction Source: Transiently or stably transfected cell lines (e.g. HEK293, COS, CHO, NIH3T3)
(§7) The method is carried out in the manner described for the serotonin receptor assay above. Eleven dilutions (5× assay concentration) of the test and reference (see Table 19) compounds are prepared in Dopamine Binding Buffer by serial dilution, as previously described. Radioligand is diluted to five times the assay concentration (see Table 20) in Dopamine Binding Buffer.

Data set [5] has as its target 5HT2a receptor (Homo sapiens (Human), UniProt P28223). The data set can be described thus: Secondary radioligand binding assay, 5HT2a. Conditions: average of at least two experiments.
Protocol: as §8, §9
The target in data set [6] is T1, dopamine D4 receptor (Homo sapiens (Human), UniProt P21917). The data set can be described thus: Secondary radioligand binding assay, D4. The conditions noted are these: receptor binding; average of at least two experiments; read-out: Ki D4. The protocol: as §1, §2, §3, §4, §5, §6, §7
Data set [7] addresses 5HT1a receptor (Homo sapiens (Human), UniProt P08908). Put plainly: Secondary radioligand binding assay, 5HT1a. Conditions: average of at least two experiments.
Protocol: as §8, §9
The target of data set [8] is hERG (Homo sapiens (Human), UniProt Q12809). Put plainly: hERG assay (PatchXpress patch clamp). Type of data set: cell-based. The procedure: 2. hERG Assay hERG activity was assayed by the patch clamp method on a PatchXpress platform and by FluxOR T1+ assays.
(The hERG channel carries a current that helps repolarise heart muscle cells.)

The target in data set [9] is dopamine D2 receptor (Homo sapiens (Human), UniProt P14416). Put plainly: Functional assay against the dopamine D2 receptor. Format: cell-based. The conditions noted are these: data not shown.
Text: as §2

Data set [10] concerns the target T1, dopamine D4 receptor. The data set can be described thus: Functional assay against the dopamine D4 receptor. Format: cell-based. Conditions: data not shown.
Text: as §2

For data set [11], the target named is 5HT1b receptor (Homo sapiens (Human), UniProt P28222). The data set can be described thus: Secondary radioligand binding assay, 5HT1b. Conditions: average of at least two experiments.
Protocol: as §8, §9
The 250 μl reactions are incubated at room temperature and shielded from light (to prevent photolysis of light-sensitive ligands) for 1.5 hours, then harvested by rapid filtration onto Whatman GF/B glass fiber filters pre-soaked with 0.3% polyethyleneimine using a 96-well Brandel harverster. Four rapid 500 μl washes are performed with chilled Standard Binding Buffer to reduce non-specific binding. Filters are placed in 6 ml scintillation tubes and allowed to dry overnight. […] The tubes are capped, labeled, and counted by liquid scintillation counting. […] The filter mats are dried, then scintillant is melted onto the filters and the radioactivity retained on the filters is counted in a Microbeta scintillation counter. […]
For data set [12], the target named is Alpha1D adrenergic receptor (Homo sapiens (Human), UniProt P25100). Put plainly: Secondary radioligand binding assay, Alpha1D. Conditions: average of at least two experiments. The procedure:
as §1, §2, §5
The method is carried out in the manner described for the serotonin receptor assay above, except where described below. Eleven dilutions (5× assay concentration) of the test and reference (see Table 20) compounds are prepared in the appropriate buffer by serial dilution, as previously described. Radioligand is diluted to five times the assay concentration (see Table 21) in the appropriate buffer.
The 250 μl reactions are incubated at room temperature and shielded from light (to prevent photolysis of light-sensitive ligands) for 1 hour (for α1 receptors, 40 min for α2 receptors, and 1.5 hours for β receptors), then harvested by rapid filtration onto Whatman GF/B glass fiber filters pre-soaked with 0.3% polyethyleneimine using a 96-well Brandel harverster. Four rapid 500-μl washes are performed with chilled distilled water (for α1 and β receptors) or 0.1% polyethyleneimine (for α2 receptors) to reduce non-specific binding. Filters are placed in 6 ml scintillation tubes and allowed to dry overnight and the samples are treated to obtain data as described above.

As usually defined, the Ki is the dissociation constant of the complex between target and ligand, obtained from inhibition or displacement.

Each structure is given as a SMILES string. Several values for one entry are separate records, joined by “and”; a condition that tells them apart may be missing. Equal values may be shown once.

Chain of dopamine D3 receptor (P35462 whole entry, species assumed): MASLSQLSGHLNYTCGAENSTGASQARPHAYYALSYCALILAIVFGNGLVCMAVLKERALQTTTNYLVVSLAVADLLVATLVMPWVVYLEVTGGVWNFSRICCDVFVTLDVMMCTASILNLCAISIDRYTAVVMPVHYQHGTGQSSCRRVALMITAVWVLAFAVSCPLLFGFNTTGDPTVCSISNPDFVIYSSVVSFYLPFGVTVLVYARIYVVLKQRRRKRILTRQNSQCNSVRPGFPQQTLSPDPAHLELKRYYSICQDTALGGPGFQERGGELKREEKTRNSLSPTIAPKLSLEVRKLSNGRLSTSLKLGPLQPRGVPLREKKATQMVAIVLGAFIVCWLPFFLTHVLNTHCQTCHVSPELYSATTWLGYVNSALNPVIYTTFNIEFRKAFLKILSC
Chain of 5HT2c receptor (P28335 33-458): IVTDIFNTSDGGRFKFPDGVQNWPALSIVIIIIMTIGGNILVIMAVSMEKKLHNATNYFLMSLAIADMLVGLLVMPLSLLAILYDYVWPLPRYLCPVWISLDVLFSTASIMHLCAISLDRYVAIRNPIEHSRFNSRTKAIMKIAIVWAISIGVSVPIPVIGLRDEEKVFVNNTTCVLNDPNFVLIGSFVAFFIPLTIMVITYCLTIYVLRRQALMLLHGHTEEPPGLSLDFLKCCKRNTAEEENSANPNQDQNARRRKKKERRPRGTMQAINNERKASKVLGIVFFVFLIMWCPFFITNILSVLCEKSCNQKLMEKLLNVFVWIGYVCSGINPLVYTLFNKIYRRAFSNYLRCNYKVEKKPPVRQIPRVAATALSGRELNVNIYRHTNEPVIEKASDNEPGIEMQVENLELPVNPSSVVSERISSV
T1 sequence (P21917 whole entry, species assumed): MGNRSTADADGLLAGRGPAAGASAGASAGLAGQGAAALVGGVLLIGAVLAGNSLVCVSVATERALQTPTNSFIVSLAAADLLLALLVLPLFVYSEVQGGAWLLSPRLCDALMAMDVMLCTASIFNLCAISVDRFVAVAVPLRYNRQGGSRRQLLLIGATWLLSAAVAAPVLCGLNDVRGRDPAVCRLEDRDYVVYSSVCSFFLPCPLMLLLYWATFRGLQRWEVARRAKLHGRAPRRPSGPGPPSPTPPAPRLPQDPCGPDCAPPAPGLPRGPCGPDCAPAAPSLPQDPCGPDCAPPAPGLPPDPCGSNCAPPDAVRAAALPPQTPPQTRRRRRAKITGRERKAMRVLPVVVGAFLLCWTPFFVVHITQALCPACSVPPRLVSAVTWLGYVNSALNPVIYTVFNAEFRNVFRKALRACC
Chain of 5HT1a receptor (P08908 whole entry): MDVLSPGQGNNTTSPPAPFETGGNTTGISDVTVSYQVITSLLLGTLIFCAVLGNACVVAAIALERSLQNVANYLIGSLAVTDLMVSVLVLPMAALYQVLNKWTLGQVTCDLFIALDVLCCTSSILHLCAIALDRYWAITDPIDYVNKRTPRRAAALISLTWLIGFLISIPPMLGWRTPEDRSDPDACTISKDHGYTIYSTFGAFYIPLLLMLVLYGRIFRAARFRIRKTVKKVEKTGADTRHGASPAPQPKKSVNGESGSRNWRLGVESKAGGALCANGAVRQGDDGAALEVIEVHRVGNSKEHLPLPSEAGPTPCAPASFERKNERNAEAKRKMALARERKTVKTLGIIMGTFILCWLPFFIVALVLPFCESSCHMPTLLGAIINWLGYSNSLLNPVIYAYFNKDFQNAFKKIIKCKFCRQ
Chain of Alpha1D adrenergic receptor (P25100 whole entry): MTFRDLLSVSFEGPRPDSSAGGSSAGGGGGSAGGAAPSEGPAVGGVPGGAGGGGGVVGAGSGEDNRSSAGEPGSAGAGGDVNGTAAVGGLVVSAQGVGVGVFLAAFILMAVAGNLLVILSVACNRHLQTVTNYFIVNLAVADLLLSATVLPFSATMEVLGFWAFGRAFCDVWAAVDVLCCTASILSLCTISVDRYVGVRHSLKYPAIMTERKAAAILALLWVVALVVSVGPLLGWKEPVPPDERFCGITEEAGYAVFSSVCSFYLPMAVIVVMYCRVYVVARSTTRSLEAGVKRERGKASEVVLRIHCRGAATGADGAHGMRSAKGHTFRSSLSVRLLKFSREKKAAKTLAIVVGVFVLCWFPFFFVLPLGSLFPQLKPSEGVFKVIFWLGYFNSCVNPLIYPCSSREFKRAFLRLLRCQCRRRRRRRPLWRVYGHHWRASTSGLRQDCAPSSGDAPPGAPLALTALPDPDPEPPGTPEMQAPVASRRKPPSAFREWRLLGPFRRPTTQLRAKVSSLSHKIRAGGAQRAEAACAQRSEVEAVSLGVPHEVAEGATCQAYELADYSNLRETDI
Chain of Alpha1A adrenergic receptor (P35348 whole entry): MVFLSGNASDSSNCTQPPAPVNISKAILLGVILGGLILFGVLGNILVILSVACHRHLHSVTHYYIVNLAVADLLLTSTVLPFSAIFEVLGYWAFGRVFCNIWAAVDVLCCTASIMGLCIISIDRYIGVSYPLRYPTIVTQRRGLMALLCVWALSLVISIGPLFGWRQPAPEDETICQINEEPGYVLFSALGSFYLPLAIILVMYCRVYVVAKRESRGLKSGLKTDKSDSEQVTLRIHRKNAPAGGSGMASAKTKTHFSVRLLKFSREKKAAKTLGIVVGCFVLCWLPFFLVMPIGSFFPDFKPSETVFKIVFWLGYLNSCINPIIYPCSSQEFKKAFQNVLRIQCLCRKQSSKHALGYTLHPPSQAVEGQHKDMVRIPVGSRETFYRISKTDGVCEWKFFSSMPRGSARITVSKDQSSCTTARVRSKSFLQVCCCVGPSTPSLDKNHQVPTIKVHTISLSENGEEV
Chain of 5HT2a receptor (P28223 whole entry): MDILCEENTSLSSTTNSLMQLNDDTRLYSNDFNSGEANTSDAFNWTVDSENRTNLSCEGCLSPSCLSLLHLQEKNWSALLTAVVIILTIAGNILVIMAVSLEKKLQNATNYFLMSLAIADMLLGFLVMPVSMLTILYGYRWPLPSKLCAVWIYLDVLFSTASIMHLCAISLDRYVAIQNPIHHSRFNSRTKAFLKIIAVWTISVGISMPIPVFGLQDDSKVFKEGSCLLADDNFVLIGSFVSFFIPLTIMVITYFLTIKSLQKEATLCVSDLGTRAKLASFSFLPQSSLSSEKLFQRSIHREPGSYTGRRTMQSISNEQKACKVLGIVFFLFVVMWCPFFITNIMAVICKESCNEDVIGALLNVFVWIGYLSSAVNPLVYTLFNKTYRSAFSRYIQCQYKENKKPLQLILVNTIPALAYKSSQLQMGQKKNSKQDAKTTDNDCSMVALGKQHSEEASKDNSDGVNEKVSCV
Chain of 5HT2b receptor (P41595 whole entry): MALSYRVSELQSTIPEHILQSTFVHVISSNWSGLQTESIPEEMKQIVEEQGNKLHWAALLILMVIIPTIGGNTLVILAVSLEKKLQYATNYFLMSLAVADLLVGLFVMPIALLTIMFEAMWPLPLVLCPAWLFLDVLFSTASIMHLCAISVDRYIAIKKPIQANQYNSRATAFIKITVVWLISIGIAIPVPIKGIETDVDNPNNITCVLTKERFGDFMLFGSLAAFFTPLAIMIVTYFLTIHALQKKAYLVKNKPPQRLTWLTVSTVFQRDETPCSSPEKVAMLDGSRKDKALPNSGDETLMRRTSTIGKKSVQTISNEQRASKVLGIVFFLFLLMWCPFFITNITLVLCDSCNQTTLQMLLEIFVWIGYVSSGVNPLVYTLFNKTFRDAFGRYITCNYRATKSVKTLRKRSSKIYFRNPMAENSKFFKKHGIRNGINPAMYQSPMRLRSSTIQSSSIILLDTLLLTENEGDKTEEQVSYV
Chain of dopamine D2 receptor (P14416 whole entry, species assumed): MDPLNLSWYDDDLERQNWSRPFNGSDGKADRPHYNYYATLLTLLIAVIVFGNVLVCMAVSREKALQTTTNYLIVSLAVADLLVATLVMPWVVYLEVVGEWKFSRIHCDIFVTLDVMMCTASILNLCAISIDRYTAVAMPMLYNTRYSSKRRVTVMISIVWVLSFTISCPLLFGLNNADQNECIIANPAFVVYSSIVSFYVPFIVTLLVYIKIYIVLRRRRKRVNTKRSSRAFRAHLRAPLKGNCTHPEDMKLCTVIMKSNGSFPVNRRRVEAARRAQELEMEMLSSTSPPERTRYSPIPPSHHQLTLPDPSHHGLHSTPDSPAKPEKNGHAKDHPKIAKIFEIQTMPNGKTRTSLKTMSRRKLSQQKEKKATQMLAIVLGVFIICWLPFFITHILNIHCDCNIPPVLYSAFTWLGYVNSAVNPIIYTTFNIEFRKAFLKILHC
Chain of 5HT1b receptor (P28222 whole entry): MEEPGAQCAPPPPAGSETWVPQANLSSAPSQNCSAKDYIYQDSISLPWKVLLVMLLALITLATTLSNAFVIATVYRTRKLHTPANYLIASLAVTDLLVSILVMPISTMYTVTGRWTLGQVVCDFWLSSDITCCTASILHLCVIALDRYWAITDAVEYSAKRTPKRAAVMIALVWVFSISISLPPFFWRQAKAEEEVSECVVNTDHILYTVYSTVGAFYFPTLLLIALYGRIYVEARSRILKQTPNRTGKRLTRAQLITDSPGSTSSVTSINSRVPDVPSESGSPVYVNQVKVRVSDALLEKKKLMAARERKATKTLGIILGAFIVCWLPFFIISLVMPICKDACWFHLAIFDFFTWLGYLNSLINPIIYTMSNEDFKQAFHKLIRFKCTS

Regarding `c1ccc(OC[C@@H]2CN(CCN3CCc4ccccc43)CCO2)cc1` [Compound 19s, (S)-4-(2-(Indolin-1-yl)ethyl)-2-(phenoxymethyl)morpholine], the Ki in data set [1] was 2720 nM; in data set [2] it was 6740 nM; in data set [3] it was 1440 nM; in [4], 2830 nM; in data set [5] it was 817 nM; in data set [6], < 1000 nM and 132 nM. In data set [7], the Ki was 0.6 nM.
Take `c1cncc(OC[C@@H]2CN(CCN3CCc4ccccc43)CCO2)c1` [Compound 21s, (S)-4-(2-(Indolin-1-yl)ethyl)-2-((pyridin-3-yloxy)methyl)morpholine]: the “Ki Alpha1A” value in data set [1] is “—”. The EC50 in data set [8] (read-out: hERG inhibition pEC50 (converted)) is 1510 nM. For the same molecule, the “function at the dopamine D2 receptor” value in [9] was “inverse agonists”. For the same molecule, the “Ki 5HT2b” value in [3] is “—”. Moreover, the Ki is 8360 nM in [4], 3540 nM in data set [5], 182 nM in data set [6] and 10000 nM in data set [7]. For the same molecule, in data set [10], the “function at the dopamine D4 receptor” value is recorded as “inverse agonists”.
With `O=C(CN1CCO[C@@H](COc2cccc(Cl)c2)C1)N1CCc2ccccc21` [Compound 22r, (R)-2-(2-((3-chlorophenoxy)methyl)morpholino)-1-(indolin-1-yl)ethanone], the “Ki Alpha1A” value in data set [1] was “—”. The “function at the dopamine D2 receptor” value in data set [9] is given as “inverse agonists”. Further, the Ki came out at 2360 nM in [3], 2070 nM in data set [5], 536 nM in data set [6] and 384 nM in data set [7]. Also, in data set [4], the “Ki D3” value was “—”. The “function at the dopamine D4 receptor” value in data set [10] is “inverse agonists”.
`O=C(CN1CCO[C@H](COc2cccc(Cl)c2)C1)N1CCc2ccccc21` [Compound 22s, (S)-2-(2-((3-Chlorophenoxy)methyl)morpholino)-1-(indolin-1-yl)ethanone]: the “Ki Alpha1A” value in [1] is listed as “—”. The inhibition constant (Ki) in data set [3] is 1100 nM; in data set [11] it was 7770 nM; in [5], 2720 nM; in data set [6] it was 2860 nM; in [7] it was 1390 nM. In data set [4], the “Ki D3” value is on record as “—”.
In the case of `Clc1cccc(OC[C@@H]2CN(CCN3CCc4ccccc43)CCO2)c1` [Compound 23s, (S)-2-((3-chlorophenoxy)methyl)-4-(2-(indolin-1-yl)ethyl)morpholine], the inhibitory constant (Ki) in [1] worked out at 9040 nM; in data set [12], 4180 nM; in data set [2], 3390 nM; in data set [4] it was 6640 nM; in [5], 1280 nM.
On to `COc1cccc(OC[C@@H]2CN(CC(=O)N3CCc4ccccc43)CCO2)c1` [Compound 24s, (S)-1-(Indolin-1-yl)-2-(2-((3-methoxyphenoxy)methyl)morpholino)ethanone], for which the “Ki Alpha1A” value in data set [1] is “—”. Further, the Ki in [3] came to 1650 nM; in data set [11], 4830 nM; in [5] it was 1940 nM; in [7], 371 nM. In addition, in data set [4], the “Ki D3” value was “—”.
Consider `COc1cccc(OC[C@@H]2CN(CCN3CCc4ccccc43)CCO2)c1` [Compound 25s, (S)-4-(2-(Indolin-1-yl)ethyl)-2-((3-methoxyphenoxy)methyl)morpholine], for which the Ki in data set [1] turned out to be 8350 nM; in [2] it was 3760 nM; in data set [4], 8290 nM; in data set [5], 1400 nM; in [7], 174 nM.
On to `Clc1cncc(OC[C@@H]2CN(CCN3CCc4ccccc43)CCO2)c1` [Compound 27s, (S)-2-(((5-Chloropyridin-3-yl)oxy)methyl)-4-(2-(indolin-1-yl)ethyl)morpholine], for which, in [1], the “Ki Alpha1A” value was “—”. In [8], the “hERG inhibition pEC50” value is 5.51+/−0.13. In [3], the “Ki 5HT2b” value is “—”. Further, the “Ki D3” value in data set [4] is “—”.
For `Cc1ncccc1OC[C@@H]1CN(CC(=O)N2c3ccccc3C[C@H]2C)CCO1` [Compound 61], the “Ki Alpha1A” value in data set [1] is “—”. Further, the Ki in data set [12] was over 10000 nM; in data set [7], 540 nM. Further, the “Ki 5HT2b” value in data set [3] is listed as “—”. In data set [4], the “Ki D3” value is “—”.
`CC1Cc2ccccc2N1C(=O)CN1CCO[C@H](COc2cccc(Cl)c2)C1` (stereo partly shown) [Compound 64]: the “Ki Alpha1A” value in [1] was “—”. For the same molecule, the inhibitory constant (Ki) in [12] was over 10000 nM; in [3] it was 441 nM; in data set [5], 4540 nM; in data set [6], 2390 nM; in [7], 644 nM. The “Ki D3” value in [4] is given as “—”.
As for `CC1Cc2ccccc2N1C(=O)CN1CCO[C@@H](COc2cccc(Cl)c2)C1` (stereo partly shown) [Compound 65], the “Ki Alpha1A” value in data set [1] is reported as “—”. In addition, the Ki in data set [12] is over 10000 nM; in data set [3] it was 333 nM; in [5], 1810 nM; in [7] it was over 10000 nM. The “Ki D3” value in data set [4] was “—”.
Take `Cc1ccccc1OC[C@H]1CN(CC(=O)N2c3ccccc3CC2C)CCO1` (stereo partly shown) [Compound 66]: the “Ki Alpha1A” value in data set [1] is “—”. Moreover, the inhibition constant Ki in [12] is over 10000 nM; in data set [3] it was 770 nM; in data set [7], 7540 nM. Besides, the “Ki D3” value in data set [4] is given as “—”.
Regarding `Cc1ccnc(OC[C@H]2CN(CC(=O)N3c4ccccc4CC3C)CCO2)c1` (stereo partly shown) [Compound 70], the “Ki Alpha1A” value in data set [1] is given as “—”. For the same molecule, the Ki was found to be 6370 nM in data set [2], 3460 nM in data set [3] and 6370 nM in data set [7]. Moreover, the “Ki D3” value in data set [4] is given as “—”.

These data come from patent US9079895B2, “Morpholino compounds, uses and methods” (University of Dundee, priority 2012, dated 2015).
